{
  "source": "paper PMC6934184",
  "about": "“Selective DNA-PKcs inhibition extends the therapeutic index of localized radiotherapy and chemotherapy” (The Journal of Clinical Investigation, 2019)",
  "target": "T1, DDR2 T654M (Homo sapiens, UniProt Q16832, T654M)",
  "T1 construct": "purchased Thermo Fisher Scientific (Life Technologies) SelectScreen",
  "T1 sequence (Q16832 22-855 T654M)": "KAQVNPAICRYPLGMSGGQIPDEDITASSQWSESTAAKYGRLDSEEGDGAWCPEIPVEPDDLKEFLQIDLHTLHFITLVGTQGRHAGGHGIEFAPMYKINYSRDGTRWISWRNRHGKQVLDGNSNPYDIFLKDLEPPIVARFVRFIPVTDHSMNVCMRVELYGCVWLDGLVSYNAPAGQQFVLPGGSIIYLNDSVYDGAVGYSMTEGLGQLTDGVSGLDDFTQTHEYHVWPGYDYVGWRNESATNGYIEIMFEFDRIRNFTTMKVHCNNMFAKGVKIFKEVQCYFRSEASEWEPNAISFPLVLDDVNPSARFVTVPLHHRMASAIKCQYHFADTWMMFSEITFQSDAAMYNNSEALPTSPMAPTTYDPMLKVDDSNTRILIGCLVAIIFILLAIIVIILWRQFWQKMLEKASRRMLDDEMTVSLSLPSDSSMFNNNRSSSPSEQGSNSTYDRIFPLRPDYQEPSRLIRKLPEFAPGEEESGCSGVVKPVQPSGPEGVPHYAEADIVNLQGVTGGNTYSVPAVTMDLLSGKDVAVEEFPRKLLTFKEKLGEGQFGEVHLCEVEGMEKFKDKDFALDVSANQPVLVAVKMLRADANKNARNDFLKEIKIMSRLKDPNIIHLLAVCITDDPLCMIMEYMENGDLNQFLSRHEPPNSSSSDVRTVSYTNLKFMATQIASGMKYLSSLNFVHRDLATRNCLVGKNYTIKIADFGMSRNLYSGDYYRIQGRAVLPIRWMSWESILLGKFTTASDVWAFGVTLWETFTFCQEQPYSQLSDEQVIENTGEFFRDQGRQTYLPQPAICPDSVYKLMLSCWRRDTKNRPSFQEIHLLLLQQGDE",
  "assay": "SelectScreen LanthaScreen",
  "assay_type": "binding",
  "details": "read-out: % displacement",
  "procedure,_shortened": "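Percent values come from Thermo SelectScreen profiling of NU5455, combining activity and binding assays. CSF1R was run in Z'LYTE format at Km app ATP, and CAMK1 in Adapta format with ATP listed at 10.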",
  "data": [
    {"compound": "CN(C(=O)CN1CCOCC1)c1ccc2sc3c(-c4cccc5c(=O)cc(N6CC7CCC(C6)O7)oc45)cccc3c2c1", "note": "[NU5455]", "values": [
      {"measurement": "inhibition at 1 µM", "value": 2.5, "unit": "%"}
    ]}
  ]
}
